# Legend:
# [1] = target: T1, Alpha-1D adrenergic receptor (Homo sapiens) (UniProt P25100); conditions: 10 uM
# T1 sequence (whole entry): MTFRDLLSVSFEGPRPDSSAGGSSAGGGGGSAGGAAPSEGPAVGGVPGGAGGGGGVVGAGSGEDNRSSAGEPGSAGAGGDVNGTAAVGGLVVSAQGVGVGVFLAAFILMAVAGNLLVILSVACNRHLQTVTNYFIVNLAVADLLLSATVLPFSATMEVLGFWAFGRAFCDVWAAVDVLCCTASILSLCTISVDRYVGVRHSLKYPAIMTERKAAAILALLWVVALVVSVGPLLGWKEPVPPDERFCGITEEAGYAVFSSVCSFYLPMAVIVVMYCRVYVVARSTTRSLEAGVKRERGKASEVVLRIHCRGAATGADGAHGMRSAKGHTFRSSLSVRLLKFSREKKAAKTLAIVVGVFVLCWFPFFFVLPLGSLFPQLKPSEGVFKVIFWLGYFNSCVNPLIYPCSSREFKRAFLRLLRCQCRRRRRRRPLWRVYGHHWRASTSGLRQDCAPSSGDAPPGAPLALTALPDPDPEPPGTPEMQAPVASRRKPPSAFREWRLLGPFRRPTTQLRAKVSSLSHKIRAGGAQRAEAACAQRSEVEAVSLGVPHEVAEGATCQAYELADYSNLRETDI
# Description: Inhibition of cloned adrenergic Alpha-1D receptor at 10 uM
# [2] = target: T2, Alpha-2A adrenergic receptor (Homo sapiens) (UniProt P08913); assay: Displacement of [3H]MK912 from human cloned adrenergic alpha-2a receptor at 10 uM
# T2 sequence (whole entry): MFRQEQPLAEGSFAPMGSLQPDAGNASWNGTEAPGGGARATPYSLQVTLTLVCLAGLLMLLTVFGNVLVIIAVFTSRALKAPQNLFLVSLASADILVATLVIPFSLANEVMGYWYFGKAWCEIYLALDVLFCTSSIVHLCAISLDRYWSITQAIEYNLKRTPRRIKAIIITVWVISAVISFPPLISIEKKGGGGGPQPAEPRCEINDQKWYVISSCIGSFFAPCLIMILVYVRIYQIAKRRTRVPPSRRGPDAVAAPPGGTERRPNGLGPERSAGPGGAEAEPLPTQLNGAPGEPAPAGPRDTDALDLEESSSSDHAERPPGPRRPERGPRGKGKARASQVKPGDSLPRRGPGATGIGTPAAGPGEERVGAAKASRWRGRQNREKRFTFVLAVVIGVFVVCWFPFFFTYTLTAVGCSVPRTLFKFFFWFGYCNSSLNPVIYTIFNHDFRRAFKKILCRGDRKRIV
# Histamine H3 receptor = Histamine H3 receptor (Rattus norvegicus, UniProt Q9QYN8); assay: Displacement of [3H]SMT from histamine H3 receptor in forebrain of rat
# Sequence of Histamine H3 receptor (Q9QYN8 whole entry): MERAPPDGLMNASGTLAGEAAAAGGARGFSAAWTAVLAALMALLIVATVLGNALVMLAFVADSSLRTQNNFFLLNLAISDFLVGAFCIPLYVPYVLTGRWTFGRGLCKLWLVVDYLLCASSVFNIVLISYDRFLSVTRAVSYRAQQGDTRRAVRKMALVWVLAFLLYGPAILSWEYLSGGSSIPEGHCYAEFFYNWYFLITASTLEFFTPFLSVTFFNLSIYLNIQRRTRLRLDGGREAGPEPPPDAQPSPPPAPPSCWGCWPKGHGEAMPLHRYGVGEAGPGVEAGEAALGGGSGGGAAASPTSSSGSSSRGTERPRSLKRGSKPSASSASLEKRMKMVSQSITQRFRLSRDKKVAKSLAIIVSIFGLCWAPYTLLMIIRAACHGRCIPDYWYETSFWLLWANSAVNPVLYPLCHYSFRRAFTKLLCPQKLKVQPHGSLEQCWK
# hERG (KCNH2) = hERG (KCNH2) (Homo sapiens, UniProt Q12809); assay: Inhibition of human ERG at 10 uM
# Sequence of hERG (KCNH2) (Q12809 whole entry): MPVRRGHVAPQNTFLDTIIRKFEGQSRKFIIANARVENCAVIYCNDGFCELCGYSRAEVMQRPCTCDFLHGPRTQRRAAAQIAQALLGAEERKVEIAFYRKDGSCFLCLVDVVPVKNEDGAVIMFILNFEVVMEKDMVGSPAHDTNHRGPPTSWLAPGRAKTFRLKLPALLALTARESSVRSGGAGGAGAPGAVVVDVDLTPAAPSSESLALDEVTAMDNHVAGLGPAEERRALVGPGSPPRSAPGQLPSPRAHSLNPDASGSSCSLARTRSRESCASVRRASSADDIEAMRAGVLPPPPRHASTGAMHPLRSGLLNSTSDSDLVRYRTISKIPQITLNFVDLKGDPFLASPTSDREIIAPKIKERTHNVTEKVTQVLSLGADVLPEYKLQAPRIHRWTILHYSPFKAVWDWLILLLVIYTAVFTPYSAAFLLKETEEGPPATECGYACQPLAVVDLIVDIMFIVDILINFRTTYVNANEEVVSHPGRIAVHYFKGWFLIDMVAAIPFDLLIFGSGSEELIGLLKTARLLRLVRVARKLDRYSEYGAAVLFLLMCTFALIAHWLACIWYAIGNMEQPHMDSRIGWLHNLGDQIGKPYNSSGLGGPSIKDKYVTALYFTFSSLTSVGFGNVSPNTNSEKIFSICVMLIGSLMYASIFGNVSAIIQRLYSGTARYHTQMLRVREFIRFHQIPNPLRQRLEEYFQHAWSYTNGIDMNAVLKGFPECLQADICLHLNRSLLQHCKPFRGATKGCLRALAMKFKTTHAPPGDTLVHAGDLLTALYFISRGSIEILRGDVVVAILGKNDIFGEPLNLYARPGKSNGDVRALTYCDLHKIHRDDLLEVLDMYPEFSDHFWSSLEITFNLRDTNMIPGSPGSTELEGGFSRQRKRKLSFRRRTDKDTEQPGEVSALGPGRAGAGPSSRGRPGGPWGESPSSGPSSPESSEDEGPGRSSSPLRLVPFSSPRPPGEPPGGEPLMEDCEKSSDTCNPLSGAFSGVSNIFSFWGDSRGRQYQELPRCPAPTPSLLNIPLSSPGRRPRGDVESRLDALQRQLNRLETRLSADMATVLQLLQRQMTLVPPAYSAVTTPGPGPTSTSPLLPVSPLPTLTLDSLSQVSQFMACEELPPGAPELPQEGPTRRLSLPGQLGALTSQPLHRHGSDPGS
# [3] = target: T3, Alpha-1D adrenergic receptor (Homo sapiens, UniProt P25100); assay: Inhibition of cloned adrenergic Alpha-1D receptor
# T3 sequence (P25100 whole entry): T1 sequence (whole entry)
# [4] = target: T4, Alpha-2A adrenergic receptor (Homo sapiens, UniProt P08913); assay: Displacement of [3H]MK912 from human cloned adrenergic alpha-2a receptor
# T4 sequence (P08913 whole entry): T2 sequence (whole entry)
# [5] = target: Histamine H3 receptor (Rattus norvegicus) (UniProt Q9QYN8); conditions: 10 uM
# Sequence of Histamine H3 receptor (Rattus norvegicus) (Q9QYN8 whole entry): as the sequence (Q9QYN8 whole entry) above
# Description: Displacement of [3H]SMT from histamine H3 receptor in forebrain of rat at 10 uM
# Histamine H2 receptor = Histamine H2 receptor (Cavia porcellus, UniProt P47747); assay: Displacement of [125I]-APT from histamine H2 receptor in brain of guinea pig; format: tissue-based
# Sequence of Histamine H2 receptor (P47747 whole entry, looked up): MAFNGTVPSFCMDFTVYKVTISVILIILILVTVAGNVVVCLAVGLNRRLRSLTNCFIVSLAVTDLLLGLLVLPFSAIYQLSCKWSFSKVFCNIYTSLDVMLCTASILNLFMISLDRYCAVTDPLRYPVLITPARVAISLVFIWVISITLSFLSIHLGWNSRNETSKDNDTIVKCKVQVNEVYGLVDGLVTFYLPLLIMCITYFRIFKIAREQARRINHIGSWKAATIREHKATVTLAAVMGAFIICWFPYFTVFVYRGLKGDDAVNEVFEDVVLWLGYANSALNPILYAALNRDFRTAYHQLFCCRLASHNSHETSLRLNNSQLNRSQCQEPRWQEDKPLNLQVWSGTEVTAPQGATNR
# [6] = Inhibition of L-type calcium channel at 10 uM
smiles,measurement,setting,value
CN(C)CCCOc1ccc(CCNC(=O)c2cc(Br)c[nH]2)cc1Br [DISPYRIN],inhibition,[1],91%
same,inhibition,[2],97%
same,IC50,Histamine H3 receptor,2350 nM
same,Ki,Histamine H3 receptor,1040 nM
same,inhibition at 10 µM,hERG (KCNH2),50%
same,IC50,[3],560 nM
same,Ki,[3],275 nM
same,IC50,[4],185 nM
same,Ki,[4],69 nM
same,inhibition,[5],91%
same,IC50,Histamine H2 receptor,1250 nM
same,Ki,Histamine H2 receptor,1020 nM
same,inhibition,[6],50%

# From ChEMBL document CHEMBL1140141 (J Nat Prod, 2008)
